# Measurements reported in article PMC10974317, “Anti-COVID Drugs (MMV COVID Box) as Leishmanicidal Agents: Unveiling New Therapeutic Horizons” (Pharmaceuticals, 2024).
# Where two headings read alike, the source gives them in different places.
# Legend:
# [1] = test system: L. amazonensis intracellular amastigotes; assay: Intracellular amastigote activity (parasite rescue and transformation assay); assay type: cell-based, Leishmania amazonensis; details: for Selectivity index (CC50/IC50): CC50 murine macrophages / IC50 L. amazonensis amastigotes
# Experimental: Intracellular amastigote activity against L. amazonensis was measured through a parasite rescue and transformation assay for the purchased compounds. Macrophages were seeded in a 96-well plate and infected with promastigotes at the metacyclic stage for subsequent compound treatment. After incubation, macrophages were lysed, and the medium and conditions were changed to stimulate amastigote transformation. The results were assessed using alamarBlue® [28].
# [2] = test system: Leishmania donovani promastigotes; assay: Leishmanicidal activity against promastigotes (alamarBlue assay); assay type: cell-based; details: 72 h; for IC50: Leishmania donovani, read-out: inhibitory concentration 50 (IC50), promastigote stage, L. donovani
# Experimental: (§1) Initial screening of the 160 compounds against Leishmania promastigotes was performed at 10 μM following MMV foundation instructions provided with the box. The compound activity was assessed using the modified alamarBlue® assay (Invitrogen/Life Technologies, Madrid, Spain) with 10^6 promastigotes per well. DMSO concentration never surpassed 0.1% (v/v) to avoid impacting parasite proliferation or morphology. Subsequently, an EnSpire multimode plate reader (PerkinElmer, MA, USA) was used to measure fluorescence after 72 h. […] Serial dilutions were made in 96-well plates and incubated with parasites for 72 h after adding alamarBlue®. IC50 values were calculated using SigmaPlot 14.0 (Systat Software Inc., Chicago, IL, USA) based on fluorescence measurements. Each concentration was tested in duplicate across three independent experiments.
# [3] = test system: Leishmania amazonensis promastigotes; assay: as above; assay type: cell-based; details: 72 h, mean ± SD, read-out: inhibitory concentration 50 (IC50), promastigote stage, L. amazonensis
# Experimental: as §1
# [4] = test system: Leishmania amazonensis promastigotes; assay: Mitochondrial membrane potential disruption (JC-1); assay type: cell-based; details: 24 h with IC90, vs negative control
# Experimental: JC-1 Mitochondrial Membrane Potential kit (Cayman Chemical, Ann Arbor, MI, USA) was employed following the manufacturer’s instructions. […] Three independent experiments were conducted for this assay.
# [5] = promastigotes, alamarBlue, mean ± SD, w/a: without activity
# [6] = Leishmania amazonensis, Macrophage, in Mus musculus, intracellular amastigotes in murine macrophages, read-out: IC50, amastigote stage, L. amazonensis
smiles,measurement,setting,value
CC(C)C[C@H](NC(=O)[C@H](Cc1ccccc1)NC(=O)c1cnccn1)B(O)O [Bortezomib],IC50,"[1]; Leishmania amazonensis, Macrophage, in Mus musculus, read-out: IC50, amastigote stage, L. amazonensis, intracellular amastigotes in murine macrophages",0.04 ± 0.01 µM
same,IC50,[2]; [5],37.2 ± 2.51 µM
same,IC50,[3]; Leishmania amazonensis,0.42 ± 0.08 µM
same,change in mitochondrial membrane potential (ΔΨm),[4],significant decrease
CO[C@@H]1[C@H](N(C)C(=O)c2ccccc2)C[C@H]2O[C@]1(C)n1c3ccccc3c3c4c(c5c6ccccc6n2c5c31)C(=O)NC4 [Midostaurin],activity against the amastigote form,[1]; at 10 μM,no activity
CC(C)N1CCN(c2ccc(OCC3COC(Cn4cncn4)(c4ccc(Cl)cc4Cl)O3)cc2)CC1 (stereo not drawn) [Terconazole],Selectivity index (CC50/IC50),[1],19
same,IC50,[1]; [6],< 2.4 µM
same,IC50,"[1]; intracellular amastigotes in murine macrophages, read-out: IC50, amastigote stage, L. amazonensis",2.38 ± 0.4 µM
same,IC50,[2]; [5],11.6 ± 1.38 µM
same,IC50,[3]; Leishmania amazonensis,3.82 ± 1.04 µM
same,change in mitochondrial membrane potential (ΔΨm),[4],significant decrease
CCCCCCCCCCCCCCCCOP(=O)([O-])OCC[N+](C)(C)C [Miltefosine],Selectivity index (CC50/IC50),[1],23
same,IC50,[2],72.2 ± 3.06 µM
C[C@@H]1CCCN1CCc1cc2cc(-c3ccc(C#N)cc3)ccc2o1 [ABT239],Selectivity index (CC50/IC50),[1],46
same,IC50,[1]; [6],0.49 ± 0.13 µM
same,IC50,[2]; [5],1.68 ± 0.25 µM
same,IC50,[3],1.31 ± 0.07 µM
same,IC50,[3]; Leishmania amazonensis,< 1.4 µM
C=CCNc1nc(NCC=C)nc(N2CCN(C(c3ccc(F)cc3)c3ccc(F)cc3)CC2)n1 [Almitrine],IC50,[1]; [6],< 2.4 µM
same,IC50,"[1]; read-out: IC50, amastigote stage, L. amazonensis, intracellular amastigotes in murine macrophages",2.18 ± 0.47 µM
same,"inhibitory concentration 50 (IC50), promastigote stage, L. donovani",[2]; [5],w/a at 100
same,IC50,[3],1.19 ± 0.02 µM
same,IC50,[3]; Leishmania amazonensis,< 1.4 µM
same,change in mitochondrial membrane potential (ΔΨm),[4],significant decrease
